This is an account of results in US20170056422A1, “PLASMODIUM LIVER-STAGE INHIBITORS AND RELATED METHODS” (Seattle Biomedical Research Institute, priority 2014, published 2017).

Molecules are shown by their SMILES. “Also recorded” adds a separate entry of the source. Like-named read-outs stand apart in the source and are kept apart here.

Data set [1] relates to P. yoelii LS parasites. The data set can be described thus: Quantification of LS parasites in P. yoelii-infected Hepa 1-6 cells by manual counting. Format: cell-based, Plasmodium yoelii. To be noted: for LS burden: 100 nM, 24 or 48 hours; for effect of adding pan-caspase inhibitor qVD-OPh on the LS reduction by the drug: qVD-OPh 20 μM. Here is the method:
Quantification of LS parasites after ABT-737, ABT-199, Obatoclax, Nutlin-3, or Serdemetan treatment by manual counting. In all, 1.5×10^5 Hepa 1-6 cells were seeded in DMEM complete medium in each well of an eight-well Permanox slide. Cells were infected with 5×10^4 P. yoelii sporozoites. Slides were centrifuged for 3 min at 515× g in a hanging-bucket centrifuge to aid in sporozoite invasion. After 90 min, we removed media that contained sporozoites that had not infected the cells and added fresh media only, or media containing ABT-737 (100 nM), ABT-199 (100 nM), Obatoclax (100 nM), Nutlin-3 (20 μM), or Serdemetan (10 μM) with or without qVD-OPh (20 μM). We allowed LSs to develop for 24 hours or 48 hours, at which time cells were fixed with 4% paraformaldehyde, blocked, and permeabilized for 1 hour in PBS with the addition of 0.1% Triton X-100 and 2% BSA. Staining steps were performed in PBS supplemented with 2% BSA. We stained cells using anti-sera to Plasmodium HSP70 and UIS4 proteins at 4° C. overnight and then washed several times, and antibodies were visualized with the use of AlexaFluor-488 goat anti-mouse and AlexaFluor-594 goat anti-rabbit secondary antibody (Life Technologies, Grand Island, N.Y., USA). We used DAPI stain to visualize both hepatocyte and parasite nuclei. Sporozoites that had not invaded and/or developed in hepatoma cells were distinguished by UIS4 circumferential staining and morphology. All LS parasites in each well were counted, and each assay was performed in biological triplicate.

For another data set, the system named is p53. In words: Quantification of p53 by Western blotting in Hepa 1-6 cells. Format: cell-based. As to conditions: immunoblot, 24 or 48 hours. The method, then:
Quantification of p53 by Western Blotting. We plated 10^6 Hepa 1-6 cells per well of a 6-well plate in DMEM complete media and treated with complete media only, 20 μM Nutlin-3, 100 nM ABT-737, 100 nM Obatoclax, or 10 μM Serdemetan for 24 or 48 hours. Cells were lysed in SDS lysis buffer (2% SDS, 50 mM Tris-HCl, 5% glycerol, 5 mM EDTA, 1 mM NaF, 10 mM β-glycerophosphate, 1 mM PMSF, 1 mM activated Na3VO4, 1 mM DTT, 1% phosphatase inhibitor cocktail 2; Sigma-Aldrich), 1% PhosSTOP Phosphatase Inhibitor Cocktail Tablet (Roche), filtered overnight at 3000 rpm through AcroPrep Advance Filter Plates (Pall Corporation) and stored at −80° C. Western blots were performed according to manufacturer instruction with the iBlot Dry Transfer System (Life Technologies, Carlsbad, Calif., USA) using an antibody to p53 (Clone 1C12; Cell Signaling Technology) and then normalized to signal from an anti-β-actin (Cell Signaling Technology) Western blot. Signals from immunoblots were detected using either an Alexa 680-conjugated anti-rabbit antibody or an Alexa 800-conjugated anti-mouse antibody (LI-COR Biosciences). Membranes were visualized using an Odyssey infrared imaging system (LI-COR Biosciences).
A general note: In western blotting, separated proteins are transferred to a membrane and probed.

Data set [2] concerns Hepa 1-6 cells. In words: Cell permeabilization (cell death) assay, flow cytometry. Format: cell-based. To be noted: 48 hour treatment. On the technique in general: In flow cytometry, cells or beads pass a laser one at a time.
Description: Cell Permeabilization Assay. Hepa 1-6 cells were seeded in a 24-well tissue culture-treated plate at 3×10^5 cells per well overnight. […] Briefly, cells were stained live with reconstituted dye (1:500) in 500 μL PBS on ice for 30 minutes, mixing periodically, washed twice with 500 μL PBS, and then fixed with 100 μL BD Cytofix/Cytoperm™ fixation/permeabilization (BD Biosciences, San Jose, Calif., USA) solution for 15 minutes on ice. Cells were stored in 200 μL 5 mM EDTA in PBS at 4° C. until analyzed using a BD™ LSR II flow cytometer (BD Biosciences) at 605 nm on the violet 405 nm laser, and resulting FCS files were analyzed with FlowJo 7.6.1 (Tree Star, Ashland, Oreg., USA).
Data set [3] deals with P. yoelii. In words: Specific action of Nutlin-3 in vivo, patency in wild-type and liver-specific p53 knockout mice. As to conditions: 1000 spz. The source says: Specific Action of Nutlin-3 in vivo experiment. Liver-specific p53 knock-out mice were generated by breeding p53 floxed mice (B6.129P2-Trp53tm1Brn/J) and cre-albumin (B6.Cg-Tg(Alb-cre)21Mgn/J). P53 floxed/unfloxed alleles were identified by size of band on a 2% agarose gel (270 bp for WT, 390 bp for floxed) using the primers: forward—[…] (SEQ ID NO:1) and reverse—[…] (SEQ ID NO:2). Cre was identified by the presence/absence of the mutant allele (heterozygotes vs. homozygotes were not distinguished) using the primers: forward—[…] (SEQ ID NO:3) and reverse—[…] (SEQ ID NO:4). All DNA was extracted using Qiagen DNEasy Blood & Tissue Kit (Qiagen Inc., Valencia, Calif., USA) per manufacturer's protocol. PCR was performed using BioMix Red (2×) from BioLine (BioLine USA Inc., Taunton, Mass., USA).
Both wild-type p53 (cre-alb) and liver-specific p53 knockout mice (cre-alb/flox-p53) were treated with either vehicle or Nutlin-3 as described in the previous in vivo method. On the second day of treatment, all mice were infected i.v. with 1000 P. yoelii sporozoites. Patency was checked by Giemsa-stained thin blood smear daily until all mice became patent. Animal handling was conducted according to the Institutional Animal Care and Use Committee-approved protocols.

Data set [4] relates to P. yoelii. In words: Nutlin-3 and Obatoclax in vivo, blood stage patency in BALB/cJ mice. As to conditions: Nutlin-3 200 mg/kg twice daily, Obatoclax 5 mg/kg once daily; 1000 or 100 spz i.v. Here is the method: Nutlin-3 and Obatoclax in vivo experiments. 60 BALB/cJ mice (Jackson Laboratory, Bar Harbor, Me., USA) were treated with either vehicle control 5 mg/kg of Obatoclax, 200 mg/kg Nutlin-3, or both Obatoclax and Nutlin-3 by oral gavage once (Obatoclax) or twice (Nutlin-3) daily for 3 days. On the second day of treatment, mice were injected with 1000 or 100 P. yoelii sporozoites. Patency was checked by Giemsa-stained thin blood smear daily for the first 7 days, then every other day until day 14. Animal handling was conducted according to the Institutional Animal Care and Use Committee-approved protocols.

For data set [5] the following is noted: cited from earlier work.
Data set [6] concerns P. yoelii LS parasites. The data set can be described thus: Quantification of LS parasites in P. yoelii-infected Hepa 1-6 cells by manual counting. To be noted: Serdemetan 10 μM for 24 hours both before and after infection. Format: cell-based, Plasmodium yoelii.
For data set [7] the following is noted: reportedly; cited from earlier work.
Data set [8] has as its system Hepa 1-6 cells. In words: Apoptosis in Hepa 1-6 cells (data not shown). Format: cell-based.

In the case of `CC1(C)CCC(CN2CCN(c3ccc(C(=O)NS(=O)(=O)c4ccc(NCC5CCOCC5)c([N+](=O)[O-])c4)c(Oc4cnc5[nH]ccc5c4)c3)CC2)=C(c2ccc(Cl)cc2)C1` [ABT-199], the LS burden result in the data set on P. yoelii LS parasites [1] is “minimal decrease; also recorded: did not reduce LS burden”.
As for `CN(C)CC[C@H](CSc1ccccc1)Nc1ccc(S(=O)(=O)NC(=O)c2ccc(N3CCN(Cc4ccccc4-c4ccc(Cl)cc4)CC3)cc2)cc1[N+](=O)[O-]` [ABT-737], the p53 protein levels result in the data set on p53 is listed as “do not increase p53 levels”. Also, the “uninfected hepatoma cell death” value in the data set with Hepa 1-6 cells [2] is reported as “no increase”. Moreover, in the data set on P. yoelii LS parasites [1], the LS burden entry is listed as “efficiently eliminates parasites” and the “effect of adding pan-caspase inhibitor qVD-OPh on the LS reduction by the drug” value was “almost completely reversed”.
In the case of `COc1ccc(C2=N[C@@H](c3ccc(Cl)cc3)[C@@H](c3ccc(Cl)cc3)N2C(=O)N2CCNC(=O)C2)c(OC(C)C)c1` [Nutlin-3], the onset of patency result is listed as “highly effective” in the data set on P. yoelii [3] (cre-Alb (wild-type p53) mice, 200 mg/kg twice daily oral gavage); “did not delay the onset of patency” in the data set on P. yoelii [3] (liver-specific p53 knockout mice (p53-flox/cre-Alb), 200 mg/kg twice daily); “delay in the onset of patency” with P. yoelii [4]. Besides, the p53 protein levels entry in the data set on p53 is “substantially boosted”. The “uninfected hepatoma cell death” value in the data set on Hepa 1-6 cells [2] is on record as “no increase”. Besides, in the data set on P. yoelii LS parasites [1] (Nutlin-3 20 μM, 48 hours), the “liver stage parasites eliminated” value stood at 97%. Also, the “effect of adding pan-caspase inhibitor qVD-OPh on the LS reduction by the drug” value in the data set on P. yoelii LS parasites [1] is recorded as “completely unaltered”.
`COC1=CC(c2cc3ccccc3[nH]2)=N/C1=C\c1[nH]c(C)cc1C` [Obatoclax]: the “uninfected hepatoma cell death” value with Hepa 1-6 cells [2] is given as “no increase”. For the same compound, in data set [5] (human, in vivo), the tolerability in humans result was “well-tolerated”.
Take `c1ccc2c(CCNc3ccc(Nc4ccncc4)cc3)c[nH]c2c1` [Serdemetan]: the LS parasites entry in the data set with P. yoelii LS parasites [6] is given as “completely eliminated”. For the same compound, the p53 protein levels entry in the data set on p53 is given as “substantially boosted”. Further, in data set [5] (clinical trials), the tolerability in humans result was “well-tolerated”. Besides, the “toxicity compared with Nutlin-3” value in data set [7] was “lower toxicity”. Moreover, in the data set on P. yoelii LS parasites [1] (48 hours), the “P. yoelii LS burden versus Serdemetan concentration” value is reported as “dose-dependent manner”. Also, the LS-infected hepatocytes eliminated entry in the data set with P. yoelii LS parasites [1] (in vitro, half the dose of Nutlin-3) is recorded as “more than 90%”. Further, the “effect of adding pan-caspase inhibitor qVD-OPh on the LS reduction by the drug” value in the data set on P. yoelii LS parasites [1] is on record as “did not reverse”.
In the case of `CC(C)[C@H](NC(=O)c1ccc2ccccc2n1)C(=O)N[C@@H](CC(=O)O)C(=O)COc1c(F)cccc1F` [qVD-OPh, N-(2-Quinolyl)-L-valyl-L-aspartyl-(2,6-difluorophenoxy) methylketone], the “apoptosis in Hepa 1-6 cells” value in the data set on Hepa 1-6 cells [8] is “reverses nearly all apoptosis”.
